Laboratory results from paper doi:10.1101/2023.05.30.542953v1 (biorxiv, 2023).

Tested on: LhCE
Assay: UV-Vis Michaelis-Menten hydrolysis assay
Assay type: biochemical, Lactobacillus helveticus
Conditions: 50 mM HEPES pH 8, 21 °C, 10 nM enzyme

Structure (SMILES) | Km (substrate stock in 5% ethanol) [µM] | Km [µM]
CCOC(=O)/C=C/c1ccc(O)c(OC)c1 [ethyl ferulate] | 386 ± 46 | –
O=C(/C=C/c1ccc(O)c(O)c1)O[C@@H]1C[C@](O)(C(=O)O)C[C@@H](O)[C@H]1O [chlorogenic acid] | – | 147 ± 41
